In PMC12216609, “Inhibitors of eIF1A-ribosome interaction unveil uORF-dependent regulation of translation initiation and antitumor and antiviral effects” (The EMBO Journal, 2025):
Values joined by “and” are separate entries in the source; they are usually repeats but may differ in a detail not shown here. Identical values can stand only once. Like-named read-outs stand apart in the source and are kept apart here.

Tests used:
eIF1A = biological target: T1, eIF1A (Homo sapiens, UniProt P47813); assay type: binding; details: for fluorescence ratio, eIF1A: background-corrected, relative to DMSO or lowest 1Ai concentration, replicate columns; for WT eIF1A IC50: fluorescence binding; for IC50 concentration (µM), WT eIF1A: summary table, fluorescence binding assay
T1 construct: His-bdSUMO (cleaved yes); made in house; host or cells: E. coli BL-21
T1 sequence (P47813 whole entry): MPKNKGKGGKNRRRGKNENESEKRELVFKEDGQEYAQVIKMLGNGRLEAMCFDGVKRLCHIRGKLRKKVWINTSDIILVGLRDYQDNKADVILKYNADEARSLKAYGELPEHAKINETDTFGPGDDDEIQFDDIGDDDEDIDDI

[1] = tested on: regulatory CUG of SARS-CoV-2 ORF7a 5'UTR in HEK293T cells; assay type: cell-based; details: for average (inverted): normalized to DMSO = 1.000, mean of 3 reps; for CUG/AUG ratio (Renilla/firefly): overnight; for FF CTG signal, mean of duplicates / FF vs Rluc / FF vs Rluc, inverted / Rluc ATG signal, mean of duplicates / normalized to DMSO: reps 1-3; for normalized to DMSO: DMSO = 1
NSP1 = NSP1 (Severe acute respiratory syndrome coronavirus 2, UniProt P0DTD1)
eIF1A-RPS10 interaction = biological target: T2, eIF1A-RPS10 interaction (Homo sapiens, UniProt P46783+P47813); test: Split-Renilla luciferase eIF1A-RPS10 interaction screen, dose-response; assay type: biochemical
T2 construct: made in house; host or cells: E. coli BL21 (PRSFduet); unpurified lysate supernatant
T2 sequence (P47813 whole entry, one chain of several): as the sequence (P47813 whole entry) above
In short: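 The assay used bacterial lysates containing human eIF1A and RPS10, each carrying a partial Renilla luciferase, with eIF1A tagged at its C-terminus. Inhibition was scored as reduced luciferase signal from compounds prepared as 10 mM DMSO stocks.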

[2] = summary table, read-out: IC50 concentration (µM), IC50 screen

Structure (SMILES) | fluorescence ratio, eIF1A (eIF1A; 1Ai conc. 0.25 uM) | fluorescence ratio, eIF1A (eIF1A; 1Ai conc. 0.5 uM) | fluorescence ratio, eIF1A (eIF1A; 1Ai conc. 1 uM) | fluorescence ratio, eIF1A (eIF1A; 1Ai conc. 2 uM) | fluorescence ratio, eIF1A (eIF1A; 1Ai conc. 4 uM) | fluorescence ratio, eIF1A (eIF1A; 1Ai conc. 8 uM) | fluorescence ratio, eIF1A (eIF1A; 1Ai conc. 16 uM) | fluorescence ratio, eIF1A (eIF1A; 1Ai conc. 32 uM) | fluorescence ratio, eIF1A (eIF1A; 1Ai conc. 64 uM) | WT eIF1A IC50 (eIF1A) | IC50 concentration (µM), WT eIF1A (eIF1A) | average (inverted) [1] | CUG/AUG ratio (Renilla/firefly) [1] | FF CTG signal, mean of duplicates [1] | FF vs Rluc [1] | FF vs Rluc, inverted [1] | Rluc ATG signal, mean of duplicates [1] | normalized to DMSO [1] | GFP reporter ratio nsp1/gfp, avg (NSP1) | GFP reporter ratio nsp1/gfp, rep 1 (NSP1) | further results
Cc1ccc(C)n1-c1cc([N+](=O)[O-])ccc1N1CCN(C(=O)c2ccccc2)CC1 [1Ai-9008] | 0.8521 and 1 | 0.8814 and 1.016 | 0.8675 and 0.9766 | 1.139 and 0.9182 | 1.153 and 0.9421 | 0.9831 and 0.8499 | 0.926 and 0.7716 | 0.9353 and 0.7367 | 1.131 and 0.7322 | No binding | No binding | 0.875 | decreased the CUG/AUG ratio to variable degrees | 19795.8 and 14760.8 and 12081.3 | 47.590 and 44.537 and 48.991 | 0.021 and 0.022 and 0.020 | 10881500 and 8214985 and 6662440 | 0.864 and 0.923 and 0.839 | 0.4707 | 0.4454 | fluorescence ratio, eIF1A (eIF1A; 1Ai conc. 256 uM): 1.254 and 0.8135; GFP reporter ratio nsp1/gfp, rep 2 (NSP1): 0.4961; gfp signal, mean of duplicate wells (NSP1): 2743.5 and 4942; nsp1 signal, mean of duplicate wells (NSP1): 1361 and 2201; ratio (nsp1/gfp) (NSP1): 0.496 and 0.445; IC50 (eIF1A-RPS10 interaction; [2]): 27 µM
O=c1cc(CN2CCOCC2)occ1OCCCCCSc1ccnc2cc(C(F)(F)F)ccc12 [1Ai-5730] | 1.04 and 0.9394 | 1.062 and 0.9801 | 1.0621 and 0.9646 | 1.055 and 0.9796 | 1.077 and 1.03 | 0.8919 and 0.9326 | 0.9465 and 0.9064 | 0.9379 and 0.8516 | 0.7437 and 0.7726 | No binding | No binding | 0.744 | decreased the CUG/AUG ratio to variable degrees | 5472.4 and 6803.94 and 6446.76 | 54.969 and 55.654 and 55.147 | 0.018 | 2604320 and 3030300 and 3158315 | 0.748 and 0.739 and 0.745 | 0.5107 | 0.524 | gfp signal, mean of duplicate wells (NSP1): 1636.5; nsp1 signal, mean of duplicate wells (NSP1): 857.5; ratio (nsp1/gfp) (NSP1): 0.524; IC50 (eIF1A-RPS10 interaction; Appendix Table S1, read-out: IC50 from the split RL screen): 30 µM; IC50 (eIF1A-RPS10 interaction; [2]): 24 µM
